A short description of data set [1]: In vitro stability in warm serum (normalized absorbance / absorption spectra over time). To be noted: compared to ZW800-1. The data set is classed as in vitro ADME. Here is the method: cRGD-ZW700-1c ZW700-1c, and ZW-800-1 are shown in FIG. 1 and are characterized with respect to their optical properties and stability in vitro. Commercial NIR fluorophores, such as IRDye™800-RS (RS-800), IRDye800-CW (CW-800), Cy5.5, and Cy7 have various degrees of sulfonation in order to achieve aqueous solubility.
The normalized absorbance of ZW800-1 and ZW700-1c in 37° C. buffered FBS, pH 7.4 over time from 0 to 60 hours are shown in FIGS. 2-4.

Data set [2] is described as follows: Stability in serum. It counts as in vitro ADME.

Regarding `CC1(C)C(/C=C/C(=C/C=C2/N(CCC[N+](C)(C)C)c3ccc(S(=O)(=O)[O-])cc3C2(C)C)c2ccc(CCC(=O)[O-])cc2)=[N+](CCC[N+](C)(C)C)c2ccc(S(=O)(=O)[O-])cc21` [ZW700-1c], in data set [1] (37° C. buffered FBS, pH 7.4, 0 to 60 hours), the “stability (normalized absorbance over time)” value is recorded as “extreme stability”. Further, the “stability over time (changes in absorption spectra during metabolism in warm serum)” value in data set [1] (warm serum) is given as “high stability”. Take `N=C(N)NCC[C@@H]1NC(=O)[C@H](CCCCN)NC(=O)[C@@H](Cc2ccc(O)cc2)NC(=O)[C@H](C(=O)O)NC(=O)CNC1=O` [cRGD]: the stability in serum entry in data set [2] is reported as “stable in serum for days”.

The values are drawn from US12661416B2, “Combinations of imaging agent conjugates and application thereof” (Curadel Surgical Innovations, Inc., priority 2023, dated 2026).
